The values below come from patent publication US5525604A, “4-aminopyrimidine derivatives” (Ono Pharmaceutical Co., Ltd., priority 1994, dated 1996).

In general, IC50 refers to the concentration that gives 50% inhibition. Low values mean greater potency in that assay, high ones weaker potency in that assay. What is called inhibition is the change of the read-out against control, counted positive when it falls. Read a low inhibition as little suppression.

One experiment deals with cGMP-PDE (Homo sapiens, UniProt O76074). The experiment can be described thus: Inhibitory effect on cGMP-PDE (PDE IC isolated from human platelets, 3H-cGMP substrate). It is filed as biochemical. The note with it: 0.2 μM 3H-cGMP, pH 8.0, 2.5% DMSO.
For another experiment, the target named is T1, TXA2 synthetase (Rattus norvegicus, UniProt P49430).
T1 construct: whole blood was collected from abdominal aorta; from tissue; host or cells: heparinized whole blood of male Wistar rats (mainly platelets)
T1 sequence (P49430 1-533): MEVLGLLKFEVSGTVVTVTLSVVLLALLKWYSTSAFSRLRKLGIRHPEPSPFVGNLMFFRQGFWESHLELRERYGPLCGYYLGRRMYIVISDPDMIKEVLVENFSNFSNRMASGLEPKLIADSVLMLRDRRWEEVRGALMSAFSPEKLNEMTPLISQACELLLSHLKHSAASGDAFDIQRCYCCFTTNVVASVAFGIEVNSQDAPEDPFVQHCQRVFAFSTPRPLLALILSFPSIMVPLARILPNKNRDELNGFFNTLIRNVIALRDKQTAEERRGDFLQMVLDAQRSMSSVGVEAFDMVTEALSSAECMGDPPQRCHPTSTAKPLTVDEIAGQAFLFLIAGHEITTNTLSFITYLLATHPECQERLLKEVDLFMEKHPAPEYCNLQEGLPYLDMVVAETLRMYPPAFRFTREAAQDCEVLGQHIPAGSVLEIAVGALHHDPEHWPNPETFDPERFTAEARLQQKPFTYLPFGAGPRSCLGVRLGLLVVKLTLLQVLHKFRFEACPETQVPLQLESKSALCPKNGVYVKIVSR
As to the kind of experiment: Inhibitory effect on TXA2 synthetase (TXB2 by EIA in A23187-stimulated rat whole blood). It is filed as cell-based, rat (Male Wistar rats). As to conditions: rat heparinized whole blood, Ca ionophore A23187, TXB2 by EIA, 37° C. Here is the method: (2) Inhibitory effect on TXA2 synthetase
Male Wistar rats were starved overnight. 500 μL of heparinized (10 U/mL) whole blood was collected from abdominal aorta using polyethylene syringe (needle: 22 or 26 G). The blood freshly drawn from animal was preincubated with 5 μL Of test compound (concentration 10 μM) at 37° C. Five minutes later, 2.5 μL of 6 mM of Ca ionophore A23187 (final concentration of […]) was added into tube, and incubation mixture was further incubated for 15 min. The reaction was terminated by centrifugation of tubes at 12,000 rpm for 2 min. TXB2 content in the supernatant was determined by EIA as follows.
1 mL of 0.5M glycine-HCl buffer (pH 3.2) was added to 100 μL of sample. The samples were mixed well and centrifuged at 1,700 G for 10 min. at 4° C. The extracted supernatant was applied to a SEP-PAK (registered Trade Mark) C18 cartridge (Waters Assoc.). After washing with 10 mL of distilled water followed by 10 mL each of 15% ethanol and petroleum ether, the sample was eluted with 3 mL of ethyl acetate. The ethyl acetate fraction was evaporated to dryness under gentle N2 stream and the residue was dissolved in EIA buffer (final volume of 1 mL) following the addition of […] of 0.01M NaHCO3-NaOH buffer (pH 10.0). EIA for TXB2 was carried out according to a legend attached to the kit (Chyman Chemical Co., inc.) and calculated inhibition percent. Overall recovery of TXB2 in this extraction procedure was 90%..

SMILES strings stand for the structures. Where a name gives a salt, the structure may show the parent alone.

In turn, `c1ccc(CNc2ccnc(-n3ccnc3)n2)cc1` [1(a), 2-(1-Imidazolyl)-4-phenylmethylaminopyrimidine] yielded an IC50 on cGMP-PDE of 38 µM.

With `c1ccc(-c2cnc(-n3ccnc3)nc2NCc2ccc3c(c2)OCO3)cc1` [1(bb)], the IC50 at cGMP-PDE worked out at 0.014 µM. Further, at 10 µM the inhibition on TXA2 synthetase was 90%.

`CCc1cnc(-n2ccnc2)nc1NCc1ccccc1` [1(c), 2-(1-Imidazolyl)-5-ethyl-4-phenylmethylaminopyrimidine] displayed a half-inhibitory concentration (IC50) against cGMP-PDE of 2.5 µM.

For the molecule `c1ccc(CNc2nc(-n3ccnc3)ncc2Cc2ccccc2)cc1` [1(d), 2-(1-Imidazolyl)-5-phenylmethyl-4-phenylmethylaminopyrimidine], half-maximal inhibition on cGMP-PDE (IC50) was put at 1 µM.

On cGMP-PDE, `Cc1cnc(-n2ccnc2)nc1NCc1ccccc1` [1(e), 2-(1-Imidazolyl)-5-methyl-4-phenylmethylaminopyrimidine] returned an IC50 of 18 µM.

As to `Cc1nc(-n2ccnc2)nc(NCc2ccccc2)c1C` [1(f), 2-(1-Imidazolyl)-5,6-dimethyl-4-phenylmethylaminopyrimidine], on cGMP-PDE, the midpoint of inhibition, the IC50, lay at 3.65 µM.

For the molecule `COCCNc1nc(-n2ccnc2)ncc1Cc1cccc(OC)c1` [1(g), 2-(1-Imidazolyl)-5-(3-methoxyphenyl)methyl-4-(2-methoxyethyl)aminopyrimidine], on cGMP-PDE, the IC50 was 3.8 µM.

`COc1ccc(Cc2cnc(-n3ccnc3)nc2NCCOCCO)cc1` [1(h), 2-(1-Imidazolyl)-5-(4-methoxyphenyl)methyl-4-[2-(2-hydroxyethoxy)ethyl]aminopyrimidine] came in with an IC50 at cGMP-PDE of 0.7 µM. For the same molecule, at 10 µM the inhibition on TXA2 synthetase was 99%.

The molecule `COCCNc1nc(-n2ccnc2)ncc1Cc1ccc(OC)cc1` [1(i), 2-(1-Imidazolyl)-5-(4-methoxyphenyl)methyl-4-(2-methoxyethyl)aminopyrimidine] gave an IC50 against cGMP-PDE of 3.5 µM.

`COc1ccc(Cc2cnc(-n3ccnc3)nc2NCc2ccccc2)cc1` [1(j), 2-(1-Imidazolyl)-5-(4-methoxyphenyl)methyl-4-phenylmethylaminopyrimidine] came in with an IC50 against cGMP-PDE of 0.78 µM. On TXA2 synthetase, this molecule returned an inhibition at 10 µM of 94%.

Turning to `c1ccc(CNc2nc(-n3ccnc3)ncc2COc2ccccc2)cc1` [1(k), 2-(1-Imidazolyl)-5-phenoxymethyl-4-phenylmethylaminopyrimidine dihydrochloride], on cGMP-PDE, the IC50 came to 0.76 µM.

On cGMP-PDE, `c1ccc(CNc2nc(-n3ccnc3)ncc2Cn2ccnc2)cc1` [1(l), 2-(1-Imidazolyl)-5-(1-imidazolyl)methyl-4-phenylmethylaminopyrimidine] had an IC50 of 35 µM. On TXA2 synthetase, this molecule showed an inhibition at 10 µM of 63%.

For `C=C(Cl)c1cnc(-n2ccnc2)nc1NCc1ccccc1` [1(m), 2-(1-Imidazolyl)-5-(1-chlorovinyl)-4-phenylmethylaminopyrimidine hydrochloride], the IC50 on cGMP-PDE came to 1.25 µM.

Take `c1ccc(CNc2nc(-n3ccnc3)ncc2-c2cccs2)cc1` [1(n), 2-(1-Imidazolyl)-5-(2-thienyl)-4-phenylmethylaminopyrimidine hydrochloride]: testing at 10 µM at TXA2 synthetase gave an inhibition of 90%.

The molecule `c1ccc(CNc2nc(-n3ccnc3)ncc2-c2nccs2)cc1` [1(o), 2-(1-Imidazolyl)-5-(2-thiazolyl)-4-phenylmethylaminopyrimidine hydrochloride] yielded a 50% inhibitory concentration (IC50) against cGMP-PDE of 0.12 µM. The molecule further registered an inhibition at 10 µM at TXA2 synthetase of 65%.

`c1csc(-c2cnc(-n3ccnc3)nc2NCc2ccc3c(c2)OCO3)c1` [1(p), 2-(1-Imidazolyl)-5-(2-thienyl)-4-(1,3-dioxaindan-5-yl)methylaminopyrimidine hydrochloride]: on cGMP-PDE, the IC50 is 0.025 µM. Besides, the inhibition at 10 µM at TXA2 synthetase was determined as 90%.

For the molecule `OCCOCCNc1nc(-n2ccnc2)ncc1-c1cccs1` [1(q), 2-(1-Imidazolyl)-5-(2-thienyl)-4-[2-(2-hydroxyethoxy)ethyl]aminopyrimidine hydrochloride], 12.5 µM corresponded to half-maximal inhibition on cGMP-PDE (IC50). Moreover, testing at 10 µM against TXA2 synthetase gave an inhibition of 100%.

The molecule `c1csc(-c2cnc(-n3ccnc3)nc2NCc2cccc3ccccc23)c1` [1(r), 2-(1-Imidazolyl)-5-(2-thienyl)-4-(1-naphthyl)methylaminopyrimidine] registered an IC50 against cGMP-PDE of 0.35 µM.

Consider `COc1cccc(CNc2nc(-n3ccnc3)ncc2-c2cccs2)c1` [1(t), 2-(1-Imidazolyl)-5-(2-thienyl)-4-(3-methoxyphenyl)methylaminopyrimidine hydrochloride], for which inhibition against cGMP-PDE was half-maximal at 0.23 µM (IC50). This molecule also came in with an inhibition at 10 µM against TXA2 synthetase of 100%.

On to `c1coc(CNc2nc(-n3ccnc3)ncc2-c2cccs2)c1` [1(u), 2-(1-Imidazolyl)-5-(2-thienyl)-4-(2-furyl)methylaminopyrimidine hydrochloride], for which, on cGMP-PDE, half-maximal inhibition (IC50) was put at 1 µM. The molecule also showed an inhibition at 10 µM against TXA2 synthetase of 96%.

At cGMP-PDE, `c1csc(CNc2nc(-n3ccnc3)ncc2-c2cccs2)c1` [1(v), 2-(1-Imidazolyl)-5-(2-thienyl)-4-(2-thienyl)methylaminopyrimidine hydrochloride] displayed an IC50 of 0.31 µM. Further, the inhibition at 10 µM against TXA2 synthetase was found to be 100%.

Regarding `c1cncc(CNc2nc(-n3ccnc3)ncc2-c2cccs2)c1` [1(w), 2-(1-Imidazolyl)-5-(2-thienyl)-4-(3-pyridyl)methylaminopyrimidine dihydrochloride], half-maximal inhibition against cGMP-PDE (IC50) required 2 µM. Moreover, the inhibition at 10 µM against TXA2 synthetase came out at 83%.

As for `COCCNc1nc(-n2ccnc2)ncc1-c1cccs1` [1(x), 2-(1-Imidazolyl)-5-(2-thienyl)-4-(2-methoxyethyl)aminopyrimidine hydrochloride], on cGMP-PDE, it took 6 µM to reach half-maximal inhibition (IC50). This molecule also gave an inhibition at 10 µM on TXA2 synthetase of 87%.

The molecule `c1ccc(CONc2nc(-n3ccnc3)ncc2-c2cccs2)cc1` [1(y), 2-(1-Imidazolyl)-5-(2-thienyl)-4-phenylmethoxyaminopyrimidine hydrochloride] returned an IC50 against cGMP-PDE of 2.7 µM. For the same molecule, 10 µM produced 89% inhibition on TXA2 synthetase.

Molecule `Clc1ccc(CNc2nc(-n3ccnc3)ncc2-c2cccs2)cc1` [1(z), 2-(1-Imidazolyl)-5-(2-thienyl)-4-(4-chlorophenyl)methylaminopyrimidine hydrochloride] had an IC50 at cGMP-PDE of 0.061 µM.

In the case of `COc1cccc(Cc2cnc(-n3ccnc3)nc2NCCOCCO)c1` [Example 1, 2-(1-Imidazolyl)-4-[2-(2-hydroxyethoxy)ethyl]amino-5-(3-methoxyphenyl)methylpyrimidine], the IC50 against cGMP-PDE was determined as 21 µM.

`c1cncc(-c2ncc(-c3cccs3)c(NCc3ccc4c(c3)OCO4)n2)c1` [Example 2, 2-(3-Pyridyl)-5-(2-thienyl)-4-(1,3-dioxaindan-5-yl)methylaminopyrimidine hydrochloride] came in with an inhibition at 10 µM on TXA2 synthetase of 75%.
